In US20220054595A1, “Formulation Including a Combination of beta-Endorphin and Adrenocorticotropic Hormone” (Adamis Pharmaceuticals Corporation, priority 2019, published 2022):

Columns and labels:
[1] = tested on: EAE induced in SJL mice by PLP139-151/CFA immunization; experiment: EAE in SJL mice, late therapeutic treatment: clinical findings; type: in vivo, mouse
Experimental: (§1) The effect of administration of two dosages of ACTH and β-endorphin on severity and relapse in EAE was evaluated. EAE was induced in SJL mice by PLP139-151/CFA immunization on Day 0. Treatment was late therapeutic, starting on Day 20 after immunization for each mouse. Mice were observed through the end of the study, Day 42 after immunization. Four groups of 20 mice each received one of the following treatments: vehicle (a negative control); 10 mg/kg oral prednisolone daily (reference treatment); 32 μg ACTH+16 μg endorphin by subcutaneous injection, every 2nd day (low dose); or 64 μg ACTH+32 μg β-endorphin by subcutaneous injection, every 2nd day (high dose).
Mice were injected subcutaneously at four sites in the back with emulsion containing PLP139-151 (native sequence) from HOOKE KIT™ PLP139-151/CFA Emulsion, catalog number EK-0120 (Hooke Laboratories, Lawrence Mass.). Two sites of injection were in the upper back approximately 1 cm caudal of the neck line. The other two sites were in the lower back approximately 2 cm cranial of the base of the tail. The injection volume was 0.05 mL at each site. Even without treatment, most mice recover spontaneously after the first wave of disease. In the SJL model, EAE develops 10-15 days after immunization in 90-100% of immunized mice. The first wave of EAE lasts several days and most mice fully or almost fully recover from this first wave. After a disease-free period, which can last from one day to several months, most mice relapse. During the first 5-7 weeks after immunization, 50-100% of mice will develop a relapse. Each wave of paralysis results in body weight loss at onset, most of which is regained at recovery from the wave. The greatest weight loss is during the first wave of EAE. During the chronic phase of disease, the average EAE body weight is relatively stable, with normal slow increase with age. Since individual mice experience relapses at different times, only a few mice in each group are acutely sick at any given time after the first wave of EAE. Therefore, significant differences in relative body weight between groups are often not found after the first wave of disease in this model. In the vehicle treated group, disease developed as expected for this model. Five (5) mice were euthanized on Day 30 for analysis. Relapse occurred in 7 out of the 15 remaining mice, which were followed to Day 42, with typical course and severity of disease.
100 EAE induced mice were initially considered a single group and were scored daily starting on Day 9 after immunization. On Day 20, mice were assigned to the experimental groups in a balanced manner to achieve groups with similar times of EAE onset, similar maximum EAE score and similar scores at the time of enrollment into treatment (see Table 2). The remaining mice, which developed EAE last, or which developed unusual signs of EAE such as head tilting, were not assigned to any treatment group. […]
Treatment started on the day of group assignment (Day 20 after immunization). […] EAE score was determined daily by a person unaware of both treatment and of previous scores for each mouse. Weight was measured 3 times a week. […]

[2] = tested on: EAE induced in SJL mice by PLP139-151/CFA immunization; experiment: EAE in SJL mice: histological and immunohistological analyses; type: in vivo, mouse
Experimental: as §1
Treatment started on the day of group assignment (Day 20 after immunization). This was the time of the expected end of the first wave of EAE and before relapses were expected to begin. Treatment continued through Day 41. EAE score was determined daily by a person unaware of both treatment and of previous scores for each mouse. Weight was measured 3 times a week. Five mice in each group were euthanized on day 30 and the fifteen remaining mice euthanized at the end of the study (Day 42). Histological and immunohistological analyses were performed on tissue collected from the euthanized mice.

[3] = tested on: acute epileptic extensor spasms (AEES) in Ts65Dn mouse; details: GABABR agonist-treated Ts65Dn mouse; cited from earlier work

Row | Compound | End score ± SD ([1]; EAE score (scale 0-5) at end of study, mice followed until Day 42) | Body weight change versus vehicle control (in words) ([1]; end of study) | MMS of relapse period ± SD (Days 25-42) ([1]; mean maximal EAE score (scale 0-5), mice followed until Day 42, all mice in the group) | Incidence of relapse ([1]; mice followed until Day 42, treatment Day 20-41, mice that relapsed as proportion of surviving mice that developed first wave of EAE) [%] | End % body weight ± SD ([1]; relative body weight at end of study, mice followed until Day 42) | Demyelination (anti-MBP) ± SD ([2]; anti-myelin basic protein staining score 0-5) | GFAP ± SD (% of area) ([2]; gliosis, % of total spinal cord area) | lba1 ± SD (% of area) ([2]; microglial activation, % of total spinal cord area) | Demyelination, anti-myelin basic protein staining score versus vehicle (in words) ([2]; mouse, in vivo) | Gliosis (scarring), area of anti-GFAP staining versus vehicle (in words) ([2]; mouse, in vivo) | Inflammation and inflammatory infiltrates, number of inflammatory foci versus vehicle (in words) ([2]; mouse, in vivo) | Inflammatory foci/section ± SD ([2]; spinal cord histology of euthanized mice) [foci/section] | Reduction of AEES [3]
1 | C[C@]12C=CC(=O)C=C1CC[C@@H]1[C@@H]2[C@@H](O)C[C@@]2(C)[C@H]1CC[C@]2(O)C(=O)CO [Prednisolone, prednisolone] | 1.47 ± 1.04 | statistically significant loss of weight versus the vehicle control | 2.07 ± 1.10 | 33.3 | 88.6% ± 9.3% | 0.9 ± 0.6 | 13.3 ± 2.0 % of area | 4.0 ± 1.2 % of area | only at best a trend to reduction | a higher level of gliosis | only at best a trend to reduction | 3.8 ± 2.4 | 
2 | Rodent ACTH: murine ACTH, SEQ ID NO: 9, SYSMEHFRWGKPVGKKRRPVKVYPNVAENESAEAFPLEF (listed as Mus musculus) |  |  |  |  |  |  |  |  |  |  |  |  | can significantly reduce AEES
